Biological target: T1, IDO1 (Homo sapiens, UniProt P14902)
T1 construct: HeLa cells were treated with a test compound in the presence of IFNγ, which induces IDO1 expression; host or cells: H1-HeLa cells, IDO1 induced with IFNγ
Test: Cell-based (HeLa) assay for measurement of IDO1 inhibition (kynurenine levels in supernatant after IFNγ induction)
Conditions: HeLa cells, IFNγ-induced IDO1, kynurenine in supernatant after 48 hour incubation; geometric mean of a minimum of four determinations
In short: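 IDO1 activity is read as kynurenine released into the medium, detected with Ehrlich's reagent (p-dimethylaminobenzaldehyde) at 480 nm after TCA treatment. HeLa cells were exposed 48 h to compounds in 0.5% DMSO alongside IFNγ induction. Values normalized to no-IFNγ and IFNγ controls; four-parameter EC50 given as geometric mean of ≥4 determinations.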

T1 sequence (P14902 whole entry): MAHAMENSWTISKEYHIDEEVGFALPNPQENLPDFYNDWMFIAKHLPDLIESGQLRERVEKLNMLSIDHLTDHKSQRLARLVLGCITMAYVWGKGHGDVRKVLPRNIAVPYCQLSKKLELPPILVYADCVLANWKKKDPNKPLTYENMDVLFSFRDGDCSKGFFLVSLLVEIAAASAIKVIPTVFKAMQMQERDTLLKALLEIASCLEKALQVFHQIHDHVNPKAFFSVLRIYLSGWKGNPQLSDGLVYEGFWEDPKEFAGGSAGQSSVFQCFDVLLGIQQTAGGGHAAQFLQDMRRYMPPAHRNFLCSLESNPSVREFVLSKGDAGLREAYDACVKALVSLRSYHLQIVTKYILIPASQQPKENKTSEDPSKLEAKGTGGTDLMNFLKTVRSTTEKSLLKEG

SMILES	EC50
O/N=C(\Nc1ccc(F)c(Cl)c1)c1ccnc2nc(CNCc3ncccn3)[nH]c12 [Example 130, N-(3-Chloro-4-fluorophenyl)-N′-hydroxy-2-(((pyrimidin-2-ylmethyl)amino)methyl)-1H-imidazo[4,5-b]pyridine-7-carboximidamide]	2810 nM
O/N=C(\Nc1ccc(F)c(Cl)c1)c1ccnc2nc(CNCCCN3CCOCC3)[nH]c12 [Example 131, N-(3-Chloro-4-fluorophenyl)-N′-hydroxy-2-(((3-morpholinopropyl)amino)methyl)-1H-imidazo[4,5-b]pyridine-7-carboximidamide]	3020 nM
O/N=C(\Nc1ccc(F)c(Cl)c1)c1ccnc2nc(CNC3CCOCC3)[nH]c12 [Example 132, N-(3-Chloro-4-fluorophenyl)-N′-hydroxy-2-(((tetrahydro-2H-pyran-4-yl)amino)methyl)-1H-imidazo[4,5-b]pyridine-7-carboximidamide]	3430 nM
O/N=C(\Nc1ccc(F)c(Cl)c1)c1ccnc2nc(CNCc3ccncc3)[nH]c12 [Example 133, N-(3-Chloro-4-fluorophenyl)-N′-hydroxy-2-(((pyridin-4-ylmethyl)amino)methyl)-1H-imidazo[4,5-b]pyridine-7-carboximidamide]	3710 nM
O/N=C(\Nc1ccc(F)c(Cl)c1)c1ccnc2nc(CNCc3cnccn3)[nH]c12 [Example 134, N-(3-Chloro-4-fluorophenyl)-N′-hydroxy-2-(((pyrazin-2-ylmethyl)amino)methyl)-1H-imidazo[4,5-b]pyridine-7-carboximidamide]	3990 nM
O/N=C(\Nc1ccc(F)c(Cl)c1)c1ccnc2nc(CNCC3CCOC3)[nH]c12 (stereo not drawn) [Example 135, N-(3-Chloro-4-fluorophenyl)-N′-hydroxy-2-((((tetrahydrofuran-3-yl)methyl)amino)methyl)-1H-imidazo[4,5-b]pyridine-7-carboximidamide]	5110 nM
CN(C)CCNCc1nc2nccc(/C(=N/O)Nc3ccc(F)c(Cl)c3)c2[nH]1 [Example 136, N-(3-Chloro-4-fluorophenyl)-2-(((2-(dimethylamino)ethyl)amino)methyl)-N′-hydroxy-1H-imidazo[4,5-b]pyridine-7-carboximidamide]	6270 nM
O/N=C(\Nc1ccc(F)c(Cl)c1)c1ccnc2nc(CNCCc3ncccn3)[nH]c12 [Example 137, N-(3-Chloro-4-fluorophenyl)-N′-hydroxy-2-(((2-(pyrimidin-2-yl)ethyl)amino)methyl)-1H-imidazo[4,5-b]pyridine-7-carboximidamide]	7490 nM
OCCCNCc1nc2nccc(/C(=N/O)Nc3ccc(F)c(Cl)c3)c2[nH]1 [Example 138, N-(3-Chloro-4-fluorophenyl)-N′-hydroxy-2-(((3-hydroxypropyl)amino)methyl)-1H-imidazo[4,5-b]pyridine-7-carboximidamide]	8240 nM
O/N=C(\Nc1ccc(F)c(Cl)c1)c1ccnc2nc(CN3CCCC3)[nH]c12 [Example 139, N-(3-Chloro-4-fluorophenyl)-N′-hydroxy-2-(pyrrolidin-1-ylmethyl)-1H-imidazo[4,5-b]pyridine-7-carboximidamide]	1400 nM
O/N=C(\Nc1ccc(F)c(Cl)c1)c1ccnc2nc(CN3CCCCC3)[nH]c12 [Example 140, N-(3-Chloro-4-fluorophenyl)-N′-hydroxy-2-(piperidin-1-ylmethyl)-1H-imidazo[4,5-b]pyridine-7-carboximidamide]	1610 nM
CC(C)(C)CNCc1nc2nccc(/C(=N/O)Nc3ccc(F)c(Cl)c3)c2[nH]1 [Example 141, N-(3-Chloro-4-fluorophenyl)-N′-hydroxy-2-((neopentylamino)methyl)-1H-imidazo[4,5-b]pyridine-7-carboximidamide]	1680 nM
O/N=C(\Nc1ccc(F)c(Cl)c1)c1ccnc2nc(CNCC(F)F)[nH]c12 [Example 142, N-(3-Chloro-4-fluorophenyl)-2-(((2,2-difluoroethyl)amino)methyl)-N′-hydroxy-1H-imidazo[4,5-b]pyridine-7-carboximidamide]	5160 nM
CC(C)(CO)CNCc1nc2nccc(/C(=N/O)Nc3ccc(F)c(Cl)c3)c2[nH]1 [Example 143, N-(3-Chloro-4-fluorophenyl)-N′-hydroxy-2-(((3-hydroxy-2,2-dimethylpropyl)amino)methyl)-1H-imidazo[4,5-b]pyridine-7-carboximidamide]	7350 nM
O/N=C(\Nc1ccc(F)c(Cl)c1)c1ccnc2nc(CNCc3nccs3)[nH]c12 [Example 144, N-(3-Chloro-4-fluorophenyl)-N′-hydroxy-2-(((thiazol-2-ylmethyl)amino)methyl)-1H-imidazo[4,5-b]pyridine-7-carboximidamide]	8230 nM
CC(=O)NCc1nc2nccc(/C(=N/O)Nc3ccc(F)c(Cl)c3)c2[nH]1 [Example 145, N-((7-(N-(3-Chloro-4-fluorophenyl)-N′-hydroxycarbamimidoyl)-1H-imidazo[4,5-b]pyridin-2-yl)methyl)acetamide]	9760 nM
O/N=C(\Nc1ccc(F)c(Cl)c1)c1ccnc2nc(-c3cccs3)[nH]c12 [Example 146, N-(3-Chloro-4-fluorophenyl)-N′-hydroxy-2-(thiophen-2-yl)-1H-imidazo[4,5-b]pyridine-7-carboximidamide]	4220 nM

SMILES	EC50
O/N=C(\Nc1ccc(F)c(Cl)c1)c1ccnc2nc(-c3cccnc3)[nH]c12 [Example 147, N-(3-Chloro-4-fluorophenyl)-N′-hydroxy-2-(pyridin-3-yl)-1H-imidazo[4,5-b]pyridine-7-carboximidamide]	1930 nM
O/N=C(\Nc1ccc(F)c(Cl)c1)c1ccnc2nc(-c3ccc[nH]3)[nH]c12 [Example 148, N-(3-Chloro-4-fluorophenyl)-N′-hydroxy-2-(1H-pyrrol-2-yl)-1H-imidazo[4,5-b]pyridine-7-carboximidamide]	2230 nM
O/N=C(\Nc1ccc(F)c(Cl)c1)c1ccnc2nc(-c3ncc[nH]3)[nH]c12 [Example 149, N-(3-Chloro-4-fluorophenyl)-N′-hydroxy-2-(1H-imidazol-2-yl)-1H-imidazo[4,5-b]pyridine-7-carboximidamide]	529 nM
O/N=C(\Nc1ccc(F)c(Cl)c1)c1ccnc2nc(-c3ccn[nH]3)[nH]c12 [Example 150, N-(3-Chloro-4-fluorophenyl)-N′-hydroxy-2-(1H-pyrazol-5-yl)-1H-imidazo[4,5-b]pyridine-7-carboximidamide]	8480 nM
Cc1c[nH]c(-c2nc3nccc(/C(=N/O)Nc4ccc(F)c(Cl)c4)c3[nH]2)n1 [Example 151, N-(3-Chloro-4-fluorophenyl)-N′-hydroxy-2-(4-methyl-1H-imidazol-2-yl)-1H-imidazo[4,5-b]pyridine-7-carboximidamide]	463 nM
O/N=C(\Nc1ccc(F)c(Cl)c1)c1ccnc2nc(C3CCCN3)[nH]c12 (stereo not drawn) [Example 152, N-(3-Chloro-4-fluorophenyl)-N′-hydroxy-2-(pyrrolidin-2-yl)-1H-imidazo[4,5-b]pyridine-7-carboximidamide]	4040 nM
Nc1nc2nccc(/C(=N/O)Nc3ccc(F)c(Cl)c3)c2[nH]1 [Example 153, 2-Amino-N-(3-chloro-4-fluorophenyl)-N′-hydroxy-1H-imidazo[4,5-b]pyridine-7-carboximidamide]	897 nM
O/N=C(\Nc1ccc(F)c(Cl)c1)c1ccnc2nc(NC3CC3)[nH]c12 [Example 154, N-(3-Chloro-4-fluorophenyl)-2-(cyclopropylamino)-N′-hydroxy-1H-imidazo[4,5-b]pyridine-7-carboximidamide]	529 nM
O/N=C(\Nc1ccc(F)c(Cl)c1)c1ccnc2nc(Nc3ccccc3)[nH]c12 [Example 155, N-(3-Chloro-4-fluorophenyl)-N′-hydroxy-2-(phenylamino)-1H-imidazo[4,5-b]pyridine-7-carboximidamide]	2150 nM
O/N=C(\Nc1ccc(F)c(Cl)c1)c1ccnc2nc(NCCc3ccccc3)[nH]c12 [Example 156, N-(3-Chloro-4-fluorophenyl)-N′-hydroxy-2-(phenethylamino)-1H-imidazo[4,5-b]pyridine-7-carboximidamide]	769 nM
O/N=C(\Nc1ccc(F)c(Cl)c1)c1ccnc2nc(NCC(F)(F)F)[nH]c12 [Example 157, N-(3-Chloro-4-fluorophenyl)-N′-hydroxy-2-((2,2,2-trifluoroethyl)amino)-1H-imidazo[4,5-b]pyridine-7-carboximidamide]	1090 nM
CNc1nc2nccc(/C(=N/O)Nc3ccc(F)c(Cl)c3)c2[nH]1 [Example 158, N-(3-Chloro-4-fluorophenyl)-N′-hydroxy-2-(methylamino)-1H-imidazo[4,5-b]pyridine-7-carboximidamide]	460 nM
CC(C)OC(=O)Nc1nc2nccc(/C(=N/O)Nc3ccc(F)c(Cl)c3)c2[nH]1 [Example 159, Isopropyl (7-(N-(3-chloro-4-fluorophenyl)-N′-hydroxycarbamimidoyl)-1H-imidazo[4,5-b]pyridin-2-yl)carbamate]	453 nM
CCOC(=O)Nc1nc2nccc(/C(=N/O)Nc3ccc(F)c(Cl)c3)c2[nH]1 [Example 160, Ethyl (7-(N-(3-chloro-4-fluorophenyl)-N′-hydroxycarbamimidoyl)-1H-imidazo[4,5-b]pyridin-2-yl)carbamate]	423 nM
O/N=C(\Nc1ccc(F)c(Cl)c1)c1ccnc2nc(NCC3CC3)[nH]c12 [Example 161, N-(3-Chloro-4-fluorophenyl)-2-((cyclopropylmethyl)amino)-N′-hydroxy-1H-imidazo[4,5-b]pyridine-7-carboximidamide]	655 nM
O/N=C(\Nc1ccc(F)c(Cl)c1)c1ccnc2nc(NC3CC(F)(F)C3)[nH]c12 [Example 162, N-(3-Chloro-4-fluorophenyl)-2-((3,3-difluorocyclobutyl)amino)-N′-hydroxy-1H-imidazo[4,5-b]pyridine-7-carboximidamide]	4020 nM

Reference: patent US9951065B2 (Gilead Sciences, Inc., priority 2015, dated 2018)
